The subject of this assay is Phytophthora infestans. The class given is in vivo, Phytophthora infestans on tomato plants. The settings on record: individual active compound, tomato leaves, protective, rated after 6 days.

Each structure is given as a SMILES string. Like-named read-outs stand apart in the source and are kept apart here.

For `Cc1c(Br)c2ccc(F)cc2n1S(=O)(=O)c1ncn(S(=O)(=O)N(C)C)n1` [I-62, Tab.7 (IA), N,N-dimethyl-3-(3-bromo-6-fluoro-2-methylindole-1-sulfonyl)-[1,2,4]triazole-1-sulfonamide], the “Efficacy in % of the untreated control” value (1 ppm in the spray liquor) is recorded as 56%.

Regarding `CC1CCN(c2c(-c3c(F)cc(F)cc3F)c(Cl)nc3ncnn23)CC1` [II, 5-chloro-7-(4-methylpiperidin-1-yl)-6-(2,4,6-trifluorophenyl)-[1,2,4]triazolo[1,5-a]pyrimidine], the “Efficacy in % of the untreated control” value runs as follows: (0.25 ppm in the spray liquor) 0%; (1 ppm in the spray liquor) 0%; (4 ppm in the spray liquor) 0%.

For the origin of these results see patent US7601673B2 (priority 2004, dated 2009).
